The values below come from patent US20120232158A1, “METHODS OF TREATING HYPERACIDIC DISORDERS” (Yale Univeristy, priority 2008, published 2012).

“Also recorded” adds a separate entry of the source.

What all share (assay type): cell-based
Test [1] deals with gastric glands (gastric parietal cells). In words: Acid secretion by superfused gastric glands of CaSR knockout (Casr−/−; Gcm2−/−) mice. Conditions: glands from Casr−/−, FIG. 2; for acid secretion stimulated by natural secretagogue: 100 μM, Gcm2−/− mice. As for the experimental part: (§1) Male (Casr^+/+; Gcm2^−/−) or CaSR knockout (Casr^−/−; Gcm2^−/−) mice weighing 22-27 grams (upper panel) or male Sprague-Dawley rats weighing 220-275 grams (lower panel) were fasted with ad lib access to water for 18 hours prior to experimentation. The animals were exposed to an overdose of isofluorane and the stomach was removed by a total gastrectomy. The corpus was removed from the stomach and sectioned at 4° C. All mice were generated at Yale University from a breeding colony. Male Sprague-Dawley rats were purchased from Charles River Laboratories Inc. (Wilmington, Mass.). All animals were cared for according to the standard protocols of the Yale University Animal Care and Use Committee.
The HEPES-Ringer solution contained (in mmol/L): NaCl 125; KCl 5; MgCl2 0.5; HEPES 22, CaCl2 0.1 or 1.6; glucose 10, pH=7.4. The solution was bubbled with 100% O2. 2′,7′-bis′(carboxyethyl)-5-(6)-carboxyfluorescein (BCECF) from Invitrogen (Seattle, Wash., USA) and stock solutions were prepared in dimethyl sulphoxide (DMSO).
(§2) Individual gastric glands were hand dissected and transferred to the stage of an inverted microscope where they were loaded with the intracellular pH marker BCECF. Once loaded with the dye the glands were superfused with normal HEPES Ringer solution at 37° C. and at a pH of 7.4 for 5 minutes. The glands were then challenged with 20 mM NH4Cl and 0 mM Na to induce an acid load within the cell. The rate of recover was then calculated in the presence or absence of the calcimimetic Compound A at either 10 or 100 nM concentration.
(§3) The rate of recovery in the absence of Na was recorded for each parietal cell and then summated and the mean ±SEM of the data for each gland and then for each animal determined. […] The recovery rates are determined as the rate of recovery following an acid load. This rate determines how fast the cell can extrude protons and provides a measure of the activity of the gastric H,K-ATPase proton pump.
Gastric acid secretion is measured in Casr^−/−; Gcm2^−/− mice that lack a functional CaSR.

Test [2] shares this test system. Briefly: Acid secretion by superfused gastric glands isolated from control Casr+/+; Gcm2−/− mice (rate of recovery after acid load, BCECF). Conditions: FIG. 1. As for the experimental part:
as §1
(§4) The HEPES-Ringer solution contained (in mmol/L): NaCl 125; KCl 5; MgCl2 0.5; HEPES 22, CaCl2 0.1 or 1.6; glucose 10, pH=7.4. […]
(§5) Individual gastric glands were hand dissected and transferred to the stage of an inverted microscope where they were loaded with the intracellular pH marker BCECF. […] The rate of recover was then calculated in the presence or absence of the calcimimetic Compound A at either 10 or 100 nM concentration.
(§6) The rate of recovery in the absence of Na was recorded for each parietal cell and then summated and the mean ±SEM of the data for each gland and then for each animal determined. […] The recovery rates are determined as the rate of recovery following an acid load. […]

Test [3] has the same test system. In words: Acid secretion by superfused gastric glands isolated from Sprague-Dawley rats (rate of recovery after acid load, BCECF). The note with it: FIG. 1. As for the experimental part: as §1, §4, §5, §6
Test [4] has the same test system. Briefly: Secretagogue (histamine) induced acid secretion in superfused gastric glands from Sprague-Dawley rats. The note with it: rat glands treated with secretagogue (histamine) first (bars B, C, D); FIG. 6.
Description: The HEPES-Ringer solution contained (in mmol/L): NaCl 125; KCl 5; MgCl2 0.5; HEPES 22, CaCl2 0.1 or 1.6; glucose 10, pH=7.4. The solution was bubbled with 100% O2. 2′,7′-bis′(carboxyethyl)-5-(6)-carboxyfluorescein (BCECF) from Invitrogen (Seattle, Wash., USA) and stock solutions were prepared in dimethyl sulphoxide (DMSO). […]
The test system is the same in test [5]. Briefly: Secretagogue (acetyl choline) induced acid secretion in mouse gastric glands with functional CaSR. Conditions: 100 μM acetyl choline, calcilytic at 10 or 100 nM, mice with functional CaSR (Casr+/+; Gcm2−/−), FIG. 3.
Test [6] has the same test system. Briefly: Acid secretion by superfused gastric glands from mice with constitutively active gastric H,K-ATPase proton pump. The note with it: mice with functional CaSR and constitutively active H,K-ATPase; FIG. 5. As for the experimental part: as §2, §3
These mice have a mutation in the gastric H,K-ATPase proton pump that renders the pump constitutively active.

Consider `C[N+](C)(C)CCOC(N)=O` [carbachol], for which the “acid secretion stimulated by natural secretagogue” value in test [1] was “able to increase acid secretion; also recorded: increases acid secretion”.
The same measure, in the same setting: in the case of `NCCc1c[nH]cn1` [histamine] it was “able to increase acid secretion; also recorded: increases acid secretion”.
Turning to `COc1cccc(C(C)NCCCc2ccccc2Cl)c1` (stereo not drawn) [Compound A, 3-(2-chlorophenyl)-N-(1-(3-(methyloxy)phenyl)ethyl)-1-propanamine], the “concentration dependence of the effect on acid secretion” value in test [2] and in test [3] was “concentration dependent” in each case. Also, in test [1] (Gcm2−/− mice lacking functional CaSR), the “effect on basal acid secretion” value is recorded as “unable to increase acid secretion”. Moreover, the “effect on secretagogue induced acid secretion” value in test [4] is reported as “decreased acid secretion”.
`CC(C)(Cc1ccc2ccccc2c1)NCC(O)COc1cccc(Cl)c1C#N` (stereo not drawn) [Compound B, 2-chloro-6-(2-hydroxy-3-(2-methyl-1-(naphthalen-2-yl)propan-2-ylamino)propoxy)benzonitrile]: the results for the “inhibition of secretagogue induced acid secretion” value in test [5] and in test [5] (listed as compound B) were “inhibition of acid secretion in a concentration dependent fashion” and “reduces acid secretion in a dose-dependent manner”, respectively. In addition, the “inhibition of acid secretion” value in test [6] is “suppresses gastric acid secretion in a concentration-dependent fashion; also recorded: reduce acid secretion”.
